Drawing on patent US12448388B2, “PRMT5 inhibitors and uses thereof” (Gilead Sciences, Inc., priority 2023, dated 2025), this text covers CC50 for 28 compounds.

Read-outs that look alike come from different tables or passages of the source.

In the assay the test system is HCT116 MTAP-deleted cell lines. Put plainly: Cell viability assay (CellTiter-Glo, 7 days), HCT116 MTAP-deleted. Type of assay: cell-based. As to conditions: Homo sapiens, HCT-116. The procedure, abridged: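 Read-out was CellTiter-Glo luminescence after a 7-day incubation (37 °C, 5% CO2) of HCT116 cells, MTAP-deleted or WT, on dose-response compound plates. CC50 values come from each line; where marked *, selectivity is overstated because poor solubility impaired the WT CC50 measurement.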
On the technique in general: Cellular ATP, detected with luciferase, serves as a proxy for viable cell number.

Setting [1] is: cell viability assay, HCT116 MTAP-deleted, class symbols, read-out: CC50.
Setting [2] is: cell viability, HCT116 MTAP-deleted, class symbols, read-out: CC50.

For orientation: CC50 means the concentration that lowers cell viability or growth by half. Consider `CN(C(=O)c1cc2c(cc1F)nc(N)c1cncn12)[C@@H]1COc2cc([C@@H]3C[C@H]3c3ccn(C(F)F)n3)ccc21` [Ff-477, 4-amino-N—((S)-6-((1R,2R)-2-(1-(difluoromethyl)-1H-pyrazol-3-yl)cyclopropyl)-2,3-dihydrobenzofuran-3-yl)-7-fluoro-N-methylimidazo[1,5-a]quinoxaline-8-carboxamide], for which the CC50 under setting [1] was < 100 nM. For `Nc1nc2cc(F)c(C(=O)N3CCC4(CC4)CC3c3ccc(C(F)(F)F)cn3)cc2n2cncc12` (stereo not shown) [Ff-225, (4-amino-7-fluoroimidazo[1,5-a]quinoxalin-8-yl)(5-(5-(trifluoromethyl)pyridin-2-yl)-6-azaspiro[2.5]octan-6-yl)methanone], the CC50 is 100 to 1000 nM. On to `Nc1nc2cc(Cl)c(C(=O)N3CC[C@H]4C[C@@H]3c3ccc(C(F)(F)F)nc3O4)cc2n2cncc12` [Ff-371, (4-amino-7-chloroimidazo[1,5-a]quinoxalin-8-yl)((2S,6R)-9-(trifluoromethyl)-3,4-dihydro-2H-2,6-methanopyrido[2,3-b][1,5]oxazocin-5(6H)-yl)methanone], for which the CC50 under setting [1] is < 100 nM.

In the case of `C[C@@H]1C[C@@H]2CCc3cc(C(F)(F)F)ccc3[C@@H]2N(C(=O)c2cc3c(cc2F)nc(N)c2cncn23)C1` (racemic) [Ff-322, Rac-(4-amino-7-fluoroimidazo[1,5-a]quinoxalin-8-yl)((3R,4aS,10bR)-3-methyl-8-(trifluoromethyl)-3,4,4a,5,6,10b-hexahydrobenzo[h]quinolin-1(2H)-yl)methanone], the CC50 under setting [2] is < 100 nM. As for `CN(C(=O)c1cc2c(cc1F)nc(N)c1cncn12)[C@@H]1COc2cc(C3CCOC3)ccc21` (mixture of isomers) [Ff-484, Rac-4-amino-7-fluoro-N-methyl-N-((3S)-6-(tetrahydrofuran-3-yl)-2,3-dihydrobenzofuran-3-yl)imidazo[1,5-a]quinoxaline-8-carboxamide], the CC50 under setting [1] is < 100 nM.

As for `C[C@H]1CN(C(=O)c2cc3c(cc2F)nc(N)c2cncn23)[C@H]2c3ccc(OC(F)(F)F)cc3C[C@H]2O1` (single isomer, unassigned) [Ff-184], the CC50 under setting [2] is < 100 nM.

Take `C[C@@H]1OC[C@H](N(C)C(=O)c2ccc3nc(N)c4cncn4c3c2)c2ccc(C(F)(F)F)cc21` (single isomer, unassigned) [Ff-470]: the CC50 under setting [1] is < 100 nM. For `CN(C(=O)c1cc2c(cc1F)nc(N)c1cncn12)[C@@H]1COc2ccc([C@H]3C[C@@H]3C#N)cc21` (stereo in doubt) [Ff-263, Trans-4-amino-N-((3S)-5-(2-cyanocyclopropyl)-2,3-dihydrobenzofuran-3-yl)-7-fluoro-N-methylimidazo[1,5-a]quinoxaline-8-carboxamide], the CC50 under setting [2] lay within 100 to 1000 nM. Regarding `Cc1ncc2c(N)nc3ccc(C(=O)N(C)[C@@H]4COc5cc(C(F)(F)F)c(F)cc54)cc3n12` [Ff-352, (S)-4-amino-N-(5-fluoro-6-(trifluoromethyl)-2,3-dihydrobenzofuran-3-yl)-N,1-dimethylimidazo[1,5-a]quinoxaline-8-carboxamide], the CC50 under setting [2] is < 100 nM.

For `CN1CC[C@@H](N(Cc2ccc(C(F)(F)F)cc2F)C(=O)c2cc3c(cc2F)nc(N)c2cncn23)C1=O` [Ff-70, 4-amino-7-fluoro-N-[[2-fluoro-4-(trifluoromethyl)phenyl]methyl]-N-[(3R)-1-methyl-2-oxo-pyrrolidin-3-yl]imidazo[1,5-a]quinoxaline-8-carboxamide], the CC50 under setting [2] was < 100 nM. As for `Nc1nc2cnc(C(=O)N3CC4(CCC4)C[C@@H]4Oc5cc(C(F)(F)F)ccc5[C@@H]43)cc2n2cncc12` (racemic) [Ff-688, Rac-(4-aminoimidazo[1,5-a]pyrido[3,4-e]pyrazin-8-yl)((4aS,9bS)-7-(trifluoromethyl)-4a,9b-dihydro-2H-spiro[benzofuro[3,2-b]pyridine-3,1′-cyclobutan]-1(4H)-yl)methanone], under setting [1], the CC50 is < 100 nM. On to `Nc1nc2cc(F)c(C(=O)N3CCN(C4COC4)CC3c3ccc(C(F)(F)F)cn3)cc2n2cncc12` (stereo not shown) [Ff-140, (4-amino-7-fluoroimidazo[1,5-a]quinoxalin-8-yl)(4-(oxetan-3-yl)-2-(5-(trifluoromethyl)pyridin-2-yl)piperazin-1-yl)methanone], for which the CC50 under setting [2] was 100 to 1000 nM. For `CN(Cc1ccc([C@@H]2C[C@H]2c2ccn(C(F)F)n2)cn1)C(=O)c1cc2c(cc1F)nc(N)c1cncn12` [Ff-428, 4-amino-N-[[5-[(1R,2R)-2-[1-(difluoromethyl)pyrazol-3-yl]cyclopropyl]-2-pyridyl]methyl]-7-fluoro-N-methyl-imidazo[1,5-a]quinoxaline-8-carboxamide], the CC50 under setting [1] was in the range of 100 to 1000 nM.

For `CN(C(=O)c1cc2c(cc1F)nc(N)c1cncn12)[C@@H](c1ccc(OC(F)F)cc1F)C(F)F` [Fb-10, (S)-4-amino-N-(1-(4-(difluoromethoxy)-2-fluorophenyl)-2,2-difluoroethyl)-7-fluoro-N-methylimidazo[1,5-a]quinoxaline-8-carboxamide], the CC50 under setting [2] was < 100 nM. Turning to `Nc1nc2cc(F)c(C(=O)N3CC(C(F)(F)F)OCC3c3ccc(C(F)(F)F)cn3)cc2n2cncc12` (stereo not shown) [Ff-401], under setting [1], the CC50 was 100 to 1000 nM. Regarding `CC1(C)CN(C(=O)c2cc3c(cc2F)nc(N)c2cncn23)C(c2ccc(C(F)(F)F)cn2)CO1` (stereo not shown) [Ff-513, (4-amino-7-fluoroimidazo[1,5-a]quinoxalin-8-yl)(2,2-dimethyl-5-(5-(trifluoromethyl)pyridin-2-yl)morpholino)methanone], under setting [1], the CC50 was < 100 nM. As for `Cc1ncn2c1c(N)nc1cnc(C(=O)N3C[C@H](C)C[C@@H]4CCc5cc(C(F)(F)F)ccc5[C@@H]43)cc12` (racemic) [Ff-462, Rac-(4-amino-3-methylimidazo[1,5-a]pyrido[3,4-e]pyrazin-8-yl)((3R,4aS,10bR)-3-methyl-8-(trifluoromethyl)-3,4,4a,5,6,10b-hexahydrobenzo[h]quinolin-1(2H)-yl)methanone], the CC50 under setting [1] is 100 to 1000 nM.

For `C[C@H]1OC[C@@H](N(C)C(=O)c2cc3c(cc2Cl)nc(N)c2cncn23)c2ccc(C(F)(F)F)cc21` (racemic) [Ff-284, Rac-4-amino-7-chloro-N-methyl-N-((1R,4S)-1-methyl-7-(trifluoromethyl)isochroman-4-yl)imidazo[1,5-a]quinoxaline-8-carboxamide], under setting [2], the CC50 is < 100 nM. On the same count and under the same terms, for `C[C@H]1CN(C(=O)c2cc3c(cn2)nc(N)c2cncn23)[C@H]2c3ccc(OC(F)(F)F)c(F)c3C[C@H]2O1` (single isomer, unassigned) [Ff-194] the value was 100 to 1000 nM; for `Nc1nc2ccc(C(=O)N3CC[C@H]4C[C@@H]3c3ccc(C(F)(F)F)cc34)cc2n2cncc12` (racemic) [Ff-74, (Rac)-(4-aminoimidazo[1,5-a]quinoxalin-8-yl)(7-(trifluoromethyl)-1,3,4,5-tetrahydro-2H-1,5-methanobenzo[c]azepin-2-yl)methanone], 100 to 1000 nM. With `Nc1nc2cc(F)c(C(=O)N3CCC4(CCc5ccccc54)C3)cc2n2cncc12` (stereo not shown) [Ff-670, (4-amino-7-fluoroimidazo[1,5-a]quinoxalin-8-yl)(2,3-dihydrospiro[indene-1,3′-pyrrolidin]-1′-yl)methanone], under setting [1], the CC50 fell in the range of 100 to 1000 nM. Regarding `Nc1nc2cc(F)c(C(=O)N3CCCC[C@@H]3c3ccc(C(F)(F)F)cc3)cc2n2cncc12` [Ff-139, (R)-(4-amino-7-fluoroimidazo[1,5-a]quinoxalin-8-yl)(2-(4-(trifluoromethyl)phenyl)piperidin-1-yl)methanone], under setting [2], the CC50 is < 100 nM. On to `Cc1ncc2c(N)nc3cc(F)c(C(=O)N4CCC[C@@H]5Oc6c(ccc(C(F)(F)F)c6F)[C@@H]54)cc3n12` [Ff-651, (4-amino-7-fluoro-1-methylimidazo[1,5-a]quinoxalin-8-yl)((4aS,9bS)-6-fluoro-7-(trifluoromethyl)-3,4,4a,9b-tetrahydrobenzofuro[3,2-b]pyridin-1(2H)-yl)methanone], for which the half-maximal cytotoxic concentration (CC50) under setting [1] is < 100 nM. Regarding `Cc1ncc2c(N)nc3cnc(C(=O)N(C)[C@@H]4COc5cc(C67CC(C6)C7)ccc54)cc3n12` [Ff-466, (S)-4-amino-N-(6-(bicyclo[1.1.1]pentan-1-yl)-2,3-dihydrobenzofuran-3-yl)-N,1-dimethylimidazo[1,5-a]pyrido[3,4-e]pyrazine-8-carboxamide], under setting [1], the CC50 was < 100 nM. Turning to `Nc1nc2cc(F)c(C(=O)N3CCC[C@@H]4Oc5cc(C(F)(F)F)ccc5[C@@H]43)cc2n2c(F)ncc12` [Ff-622, (4-amino-1,7-difluoroimidazo[1,5-a]quinoxalin-8-yl)((4aS,9bS)-7-(trifluoromethyl)-3,4,4a,9b-tetrahydrobenzofuro[3,2-b]pyridin-1(2H)-yl)methanone], the CC50 under setting [1] is < 100 nM.

Turning to `Nc1nc2cc(F)c(C(=O)N3CCOCC3c3ccc(C(F)(F)F)cn3)cc2n2cncc12` (stereo not shown) [Ff-128, (4-amino-7-fluoroimidazo[1,5-a]quinoxalin-8-yl)(3-(5-(trifluoromethyl)pyridin-2-yl)morpholino)methanone], under setting [2], the CC50 was < 100 nM. Consider `Nc1nc2cc(F)c(C(=O)N3CCO[C@@H]4Cc5cc(OC(F)(F)F)c(F)cc5[C@@H]43)cc2n2cncc12` [Ff-176, (4-amino-7-fluoroimidazo[1,5-a]quinoxalin-8-yl)((4aS,9aR)-6-fluoro-7-(trifluoromethoxy)-2,3,9,9a-tetrahydroindeno[2,1-b][1,4]oxazin-4(4aH)-yl)methanone], for which the CC50 under setting [2] is < 100 nM. Take `CCc1cc2nc(N)c3cncn3c2cc1C(=O)N(C)[C@@H]1COc2cc(C(F)(F)F)ccc21` [Fg-52, (S)-4-amino-7-ethyl-N-methyl-N-(6-(trifluoromethyl)-2,3-dihydrobenzofuran-3-yl)imidazo[1,5-a]quinoxaline-8-carboxamide]: the CC50 under setting [1] is < 100 nM.
